Experimental data published in patent publication US10478425B2, “5-phenylazaindole derivative having AMPK-activating activity” (Shionogi & Co., Ltd., priority 2016, dated 2019).

molecular target: T1, Human AMPK α2β2γ1 (Homo sapiens, UniProt O43741+P54646); assay: Test Example 2: activation of phosphorylated human AMPK α2β2γ1 (mobility-shift kinase assay, FL-Peptide 7); format: biochemical; details: compound concentration showing 150% relative to the control (100%); human AMPK α2β2γ1 phosphorylated with CaMKK2
T1 construct: The full length cDNAs of human AMPK β2 (NM_005399.3) and human AMPK α2 (NM_006252.3); The full length cDNAs of human AMPK β2 (NM_005399.3); the full length cDNA of human AMPK γ1 (NM_002733.3) had been inserted into pET28b(+); 6×His (N); made in house; host or cells: Escherichia coli BL21 CodonPlus (DE3)-RIL
In short: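 His-tagged α2β2γ1 expressed in E. coli was pre-phosphorylated by GST-CaMKKβ (25 °C, 1–1.5 h), then exposed to compound for 10 min (1% DMSO). Reaction: pH 7.0 HEPES, ATP and 1.5 μM FL-Peptide 7 (final), 2 h at 25 °C. Mobility-shift conversion gave % activity increase versus compound-free control.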

T1 sequence (P54646 whole entry): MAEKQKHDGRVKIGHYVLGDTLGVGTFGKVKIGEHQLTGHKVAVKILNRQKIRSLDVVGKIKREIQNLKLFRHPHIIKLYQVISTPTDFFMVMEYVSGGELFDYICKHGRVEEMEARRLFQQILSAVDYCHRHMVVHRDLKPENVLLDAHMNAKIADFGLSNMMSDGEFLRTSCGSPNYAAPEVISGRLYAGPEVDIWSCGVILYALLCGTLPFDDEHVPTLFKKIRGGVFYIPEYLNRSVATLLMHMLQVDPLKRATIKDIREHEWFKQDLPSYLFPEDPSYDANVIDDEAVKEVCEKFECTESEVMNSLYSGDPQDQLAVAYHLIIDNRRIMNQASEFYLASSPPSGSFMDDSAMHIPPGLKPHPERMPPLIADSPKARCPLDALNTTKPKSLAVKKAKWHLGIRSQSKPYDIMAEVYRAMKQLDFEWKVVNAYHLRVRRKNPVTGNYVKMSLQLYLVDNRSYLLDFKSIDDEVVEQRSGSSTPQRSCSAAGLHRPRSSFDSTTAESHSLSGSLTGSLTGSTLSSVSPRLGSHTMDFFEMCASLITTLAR
T1 sequence (O43741 whole entry): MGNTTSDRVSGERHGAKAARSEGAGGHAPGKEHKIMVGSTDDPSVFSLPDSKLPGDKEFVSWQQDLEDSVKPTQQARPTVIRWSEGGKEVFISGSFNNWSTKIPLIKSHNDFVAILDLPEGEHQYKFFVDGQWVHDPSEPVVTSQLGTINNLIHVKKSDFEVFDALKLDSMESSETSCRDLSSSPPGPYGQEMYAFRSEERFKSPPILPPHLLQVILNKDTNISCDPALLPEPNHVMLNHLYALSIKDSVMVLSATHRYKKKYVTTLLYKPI
T1 sequence (P54619 whole entry partner): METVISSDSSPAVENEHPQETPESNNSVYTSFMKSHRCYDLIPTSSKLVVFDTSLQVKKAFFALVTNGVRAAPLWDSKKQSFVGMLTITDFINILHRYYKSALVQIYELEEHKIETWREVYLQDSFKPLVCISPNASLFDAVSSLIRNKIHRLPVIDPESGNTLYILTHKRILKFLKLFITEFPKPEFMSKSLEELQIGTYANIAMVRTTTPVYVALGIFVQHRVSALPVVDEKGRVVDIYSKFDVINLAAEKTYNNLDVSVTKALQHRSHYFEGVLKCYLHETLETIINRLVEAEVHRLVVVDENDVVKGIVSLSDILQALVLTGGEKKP

Structure (SMILES) | EC150 [nM]
O=C1OCCN1c1ccc(-c2ccc(-c3nc4cc(O[C@@H]5CO[C@H]6[C@@H]5OC[C@H]6O)[nH]c4cc3F)cc2)cc1 [Compound I-2-41] | 0.8
O[C@@H]1CO[C@H]2[C@@H]1OC[C@H]2Oc1cc2nc(-c3ccc([C@@H]4CCCC[C@H]4O)cc3)c(F)cc2[nH]1 [Compound I-2-17] | 15
COc1ccc(-c2ccc(-c3nc4cc(O[C@@H]5CO[C@H]6[C@@H]5OC[C@H]6O)[nH]c4cc3F)cc2)cc1 [Compound I-2-24] | 11
CC(=O)N[C@H]1CC[C@H](c2ccc(-c3nc4cc(O[C@@H]5CO[C@H]6[C@@H]5OC[C@H]6O)[nH]c4cc3F)cc2)CC1 [Compound I-1-41] | 7.8
CCC(=O)NC1CC(c2ccc(-c3nc4cc(O[C@@H]5CO[C@H]6[C@@H]5OC[C@H]6O)[nH]c4cc3F)cc2)C1 (stereo partly shown) [Compound I-1-40] | 29
C[S+]([O-])c1ccc(-c2ccc(-c3nc4cc(O[C@@H]5CO[C@H]6[C@@H]5OC[C@H]6O)[nH]c4cc3F)cc2)cc1 (single isomer, unassigned) [Compound I-2-09] | 1.9
C[S+]([O-])c1ccc(-c2ccc(-c3nc4cc(O[C@@H]5CO[C@H](CO)C5)[nH]c4cc3F)cc2)cc1 (single isomer, unassigned) [Compound I-2-07] | 0.68
Cc1cc(-c2ccc(N=S(C)(C)=O)cc2)ccc1-c1nc2cc(O[C@@H]3CO[C@H]4[C@@H]3OC[C@H]4O)[nH]c2cc1F [Compound I-1-48] | 2.9
COCCNC(=O)c1ccc(-c2ccc(-c3nc4cc(O[C@@H]5CO[C@H](CO)C5)[nH]c4cc3F)cc2)cc1 [Compound I-2-82] | 0.5
CN1CCN(c2ccc(-c3ccc(-c4nc5cc(O[C@@H]6CO[C@H]7[C@@H]6OC[C@H]7O)[nH]c5cc4F)cc3)cc2)C1=O [Compound I-2-53] | 4.2
COC(=O)NC1CC=C(c2ccc(-c3nc4cc(O[C@@H]5CO[C@H]6[C@@H]5OC[C@H]6O)[nH]c4cc3F)cc2)CC1 (stereo partly shown) [Compound I-1-22] | 3.8
CS(C)(=O)=Nc1ccc(-c2ccc(-c3nc4cc(O[C@@H]5CC[C@@H](CO)OC5)[nH]c4cc3F)cc2)cc1 [Compound I-1-06] | 19
OCCOc1ccc(-c2ccc(-c3nc4cc(O[C@@H]5CO[C@H]6[C@@H]5OC[C@H]6O)[nH]c4cc3F)cc2)cc1 [Compound I-1-72] | 3
O=C(c1ccc(-c2ccc(-c3nc4cc(O[C@@H]5CO[C@H]6[C@@H]5OC[C@H]6O)[nH]c4cc3F)cc2)cc1)N1CCCC1 [Compound I-1-09] | 4.8
COCCCc1ccc(-c2ccc(-c3nc4cc(O[C@@H]5CO[C@H]6[C@@H]5OC[C@H]6O)[nH]c4cc3F)cc2)cc1 [Compound I-2-29] | 48
CS(=O)(=O)Nc1ccc(-c2ccc(-c3nc4cc(O[C@@H]5CO[C@H]6[C@@H]5OC[C@H]6O)[nH]c4cc3F)cc2)cc1 [Compound I-1-53] | 1.6
O[C@@H]1CO[C@H]2[C@@H]1OC[C@H]2Oc1cc2nc(-c3ccc(-c4ccc(OC5CNCC5F)cc4)cc3)c(F)cc2[nH]1 (stereo partly shown) [Compound I-1-71] | 4.33
O[C@@H]1CO[C@H]2[C@@H]1OC[C@H]2Oc1cc2nc(-c3ccc(-c4ccc(O[C@H]5CCOC5)cc4)cc3)c(F)cc2[nH]1 [Compound I-2-85] | 1.5
COCCOc1ccc(-c2ccc(-c3nc4cc(O[C@@H]5CO[C@H]6[C@@H]5OC[C@H]6O)[nH]c4cc3F)cc2)cn1 [Compound I-2-40] | 16
COCCOc1cc(F)c(-c2ccc(-c3nc4cc(O[C@@H]5CO[C@H]6[C@@H]5OC[C@H]6O)[nH]c4cc3F)cc2)c(F)c1 [Compound I-2-76] | 20
COCC[S+]([O-])c1ccc(-c2ccc(-c3nc4cc(O[C@@H]5CO[C@H]6[C@@H]5OC[C@H]6O)[nH]c4cc3F)cc2)cc1 (stereo partly shown) [Compound I-2-93] | 1.1

same assay, conditions: maximum rate of increase in activity within the measurement range, control = 100%

Structure (SMILES) | Emax [%]
C[S+]([O-])c1ccc(-c2ccc(-c3nc4cc(O[C@@H]5CO[C@H]6[C@@H]5OC[C@H]6O)[nH]c4cc3F)cc2)cc1 (single isomer, unassigned) [Compound I-2-09] | 598
C[S+]([O-])c1ccc(-c2ccc(-c3nc4cc(O[C@@H]5CO[C@H](CO)C5)[nH]c4cc3F)cc2)cc1 (single isomer, unassigned) [Compound I-2-07] | 638

same assay, conditions: maximum rate of increase in activity within the measurement range, control = 100%; read-out: Emax

Structure (SMILES) | Emax [%]
COCCOc1ccc(-c2ccc(-c3nc4cc(O[C@@H]5CO[C@H](CO)C5)[nH]c4cc3F)cc2)cc1 [Compound I-2-02] | 537
O=C1OCCN1c1ccc(-c2ccc(-c3nc4cc(O[C@@H]5CO[C@H]6[C@@H]5OC[C@H]6O)[nH]c4cc3F)cc2)cc1 [Compound I-2-41] | 634
O[C@@H]1CO[C@H]2[C@@H]1OC[C@H]2Oc1cc2nc(-c3ccc([C@@H]4CCCC[C@H]4O)cc3)c(F)cc2[nH]1 [Compound I-2-17] | 600
COc1ccc(-c2ccc(-c3nc4cc(O[C@@H]5CO[C@H]6[C@@H]5OC[C@H]6O)[nH]c4cc3F)cc2)cc1 [Compound I-2-24] | 364
CC(=O)N[C@H]1CC[C@H](c2ccc(-c3nc4cc(O[C@@H]5CO[C@H]6[C@@H]5OC[C@H]6O)[nH]c4cc3F)cc2)CC1 [Compound I-1-41] | 562
CCC(=O)NC1CC(c2ccc(-c3nc4cc(O[C@@H]5CO[C@H]6[C@@H]5OC[C@H]6O)[nH]c4cc3F)cc2)C1 (stereo partly shown) [Compound I-1-40] | 541
Cc1cc(-c2ccc(N=S(C)(C)=O)cc2)ccc1-c1nc2cc(O[C@@H]3CO[C@H]4[C@@H]3OC[C@H]4O)[nH]c2cc1F [Compound I-1-48] | 576
COCCNC(=O)c1ccc(-c2ccc(-c3nc4cc(O[C@@H]5CO[C@H](CO)C5)[nH]c4cc3F)cc2)cc1 [Compound I-2-82] | 591
CN1CCN(c2ccc(-c3ccc(-c4nc5cc(O[C@@H]6CO[C@H]7[C@@H]6OC[C@H]7O)[nH]c5cc4F)cc3)cc2)C1=O [Compound I-2-53] | 638
COC(=O)NC1CC=C(c2ccc(-c3nc4cc(O[C@@H]5CO[C@H]6[C@@H]5OC[C@H]6O)[nH]c4cc3F)cc2)CC1 (stereo partly shown) [Compound I-1-22] | 422
CS(C)(=O)=Nc1ccc(-c2ccc(-c3nc4cc(O[C@@H]5CC[C@@H](CO)OC5)[nH]c4cc3F)cc2)cc1 [Compound I-1-06] | 263
OCCOc1ccc(-c2ccc(-c3nc4cc(O[C@@H]5CO[C@H]6[C@@H]5OC[C@H]6O)[nH]c4cc3F)cc2)cc1 [Compound I-1-72] | 353
O=C(c1ccc(-c2ccc(-c3nc4cc(O[C@@H]5CO[C@H]6[C@@H]5OC[C@H]6O)[nH]c4cc3F)cc2)cc1)N1CCCC1 [Compound I-1-09] | 475
COCCCc1ccc(-c2ccc(-c3nc4cc(O[C@@H]5CO[C@H]6[C@@H]5OC[C@H]6O)[nH]c4cc3F)cc2)cc1 [Compound I-2-29] | 367
CS(=O)(=O)Nc1ccc(-c2ccc(-c3nc4cc(O[C@@H]5CO[C@H]6[C@@H]5OC[C@H]6O)[nH]c4cc3F)cc2)cc1 [Compound I-1-53] | 533
O[C@@H]1CO[C@H]2[C@@H]1OC[C@H]2Oc1cc2nc(-c3ccc(-c4ccc(OC5CNCC5F)cc4)cc3)c(F)cc2[nH]1 (stereo partly shown) [Compound I-1-71] | 340
O[C@@H]1CO[C@H]2[C@@H]1OC[C@H]2Oc1cc2nc(-c3ccc(-c4ccc(O[C@H]5CCOC5)cc4)cc3)c(F)cc2[nH]1 [Compound I-2-85] | 500
COCCOc1ccc(-c2ccc(-c3nc4cc(O[C@@H]5CO[C@H]6[C@@H]5OC[C@H]6O)[nH]c4cc3F)cc2)cn1 [Compound I-2-40] | 384
COCCOc1cc(F)c(-c2ccc(-c3nc4cc(O[C@@H]5CO[C@H]6[C@@H]5OC[C@H]6O)[nH]c4cc3F)cc2)c(F)c1 [Compound I-2-76] | 490
COCC[S+]([O-])c1ccc(-c2ccc(-c3nc4cc(O[C@@H]5CO[C@H]6[C@@H]5OC[C@H]6O)[nH]c4cc3F)cc2)cc1 (stereo partly shown) [Compound I-2-93] | 652
